According to US9187426B2, “Organic compounds” (Novartis AG, priority 2008, dated 2015):

Row | Compound | melting point
1 | O=C(NCc1ccc(F)cc1)c1ccnc(N2CCN(CC3CC3)C2=O)c1 [Example 15.6, 2-(3-(cyclopropylmethyl)-2-oxoimidazolidin-1-yl)-N-(4-fluorobenzyl)isonicotinamide] | 150 to 151 °C
2 | O=C(NCCC1CC1)c1ccnc(N2CCN(Cc3ccc(F)cc3)C2=O)c1 [Example 15.7, N-(2-cyclopropylethyl)-2-(3-(4-fluorobenzyl)-2-oxoimidazolidin-1-yl)isonicotinamide] | 123 to 125 °C
3 | O=C(NCc1ccccc1)c1ccnc(N2CCN(CC3CC3)C2=O)c1 [Example 15.8, N-benzyl-2-(3-(cyclopropylmethyl)-2-oxoimidazolidin-1-yl)isonicotinamide] | 121 to 123 °C
4 | O=C(NCc1cccnc1)c1ccnc(N2CCN(CC3CC3)C2=O)c1 [Example 15.9, 2-(3-(cyclopropylmethyl)-2-oxoimidazolidin-1-yl)-N-(pyridin-3-ylmethyl)isonicotinamide] | 122 to 123 °C
5 | O=C(NCc1ccccn1)c1ccnc(N2CCN(CC3CC3)C2=O)c1 [Example 15.10, 2-(3-(cyclopropylmethyl)-2-oxoimidazolidin-1-yl)-N-(pyridin-2-ylmethyl)isonicotinamide] | 122 to 123 °C
6 | O=C(NCc1ccc(F)c(F)c1)c1ccnc(N2CCN(CC3CC3)C2=O)c1 [Example 15.12, 2-(3-(cyclopropylmethyl)-2-oxoimidazolidin-1-yl)-N-(3,4-difluorobenzyl)isonicotinamide] | 134 to 136 °C
7 | O=C(NCc1ccccc1)c1ccnc(-n2cnn(CC3CC3)c2=O)c1 [Example 15.13, N-benzyl-2-(1-(cyclopropylmethyl)-5-oxo-1H-1,2,4-triazol-4(5H)-yl)isonicotinamide] | 137 to 139 °C
8 | O=C(NCc1ccc(F)c(F)c1)c1ccnc(N2CCN(Cc3ccc(F)cc3)C2=O)c1 [Example 15.14, N-(3,4-difluorobenzyl)-2-(3-(4-fluorobenzyl)-2-oxoimidazolidin-1-yl)isonicotinamide] | 182 to 183 °C
9 | O=C(NCc1ccc(F)cc1)c1ccnc(N2CCN(Cc3ccccn3)C2=O)c1 [Example 15.15, N-(4-fluorobenzyl)-2-(2-oxo-3-(pyridin-2-ylmethyl)imidazolidin-1-yl)isonicotinamide] | 141 to 142 °C
10 | O=C(NCc1ccc(F)cc1)c1ccnc(N2CCN(Cc3ccncc3)C2=O)c1 [Example 15.16, N-(4-fluorobenzyl)-2-(2-oxo-3-(pyridin-4-ylmethyl)imidazolidin-1-yl)isonicotinamide] | 161 to 163 °C
11 | O=C(NCc1ccc(F)c(F)c1)c1ccnc(N2CCN(Cc3ccccn3)C2=O)c1 [Example 15.18, N-(3,4-difluorobenzyl)-2-(2-oxo-3-(pyridin-2-ylmethyl)imidazolidin-1-yl)isonicotinamide] | 143 to 145 °C
12 | O=C(NCc1ccccc1)c1ccnc(N2CCN(Cc3ccncc3)C2=O)c1 [Example 15.19, N-benzyl-2-(2-oxo-3-(pyridin-4-ylmethyl)imidazolidin-1-yl)isonicotinamide] | 154 to 156 °C
13 | O=C(NCc1ccc(F)cc1)c1ccnc(N2CCN(Cc3ccc(F)c(F)c3)C2=O)c1 [Example 15.20, 2-(3-(3,4-difluorobenzyl)-2-oxoimidazolidin-1-yl)-N-(4-fluorobenzyl)isonicotinamide] | 165 to 167 °C
14 | O=C(NCc1ccc(F)cc1)c1ccnc(N2CCN(C(F)(F)c3ccc(C(F)F)cc3)C2=O)c1 [Example 15.21, 2-(3-((4-(difluoromethyl)phenyl)difluoromethyl)-2-oxoimidazolidin-1-yl)-N-(4-fluorobenzyl)isonicotinamide] | 173 to 175 °C
15 | O=C(NCc1ccc(F)cc1)c1ccnc(N2CCN(Cc3ccc(F)cc3F)C2=O)c1 [Example 15.22, 2-(3-(2,4-difluorobenzyl)-2-oxoimidazolidin-1-yl)-N-(4-fluorobenzyl)isonicotinamide] | 171 to 173 °C
16 | O=C(NCc1ccccc1)c1ccnc(-n2cnn(Cc3ccc(F)cc3)c2=O)c1 [Example 16, N-benzyl-2-(1-(4-fluorobenzyl)-5-oxo-1H-1,2,4-triazol-4(5H)-yl)isonicotinamide] | 173 to 175 °C
17 | O=C(NCc1ccccc1)c1ccnc(-n2ccc(-c3ccccc3)cc2=O)c1 [Example 17, N-benzyl-2-(2-oxo-4-phenylpyridin-1(2H)-yl)isonicotinamide] | 162 to 163 °C
18 | O=C(NCc1ccccc1)c1ccnc(N2CCC(c3ccccc3)CC2=O)c1 (centres unmarked) [Example 18, 2-oxo-4-phenyl-3,4,5,6-tetrahydro-2H-[1,2′]bipyridinyl-4′-carboxylic acid benzylamide] | 55 to 60 °C
19 | O=C(NCc1ccccc1)c1ccnc(-n2ccc(OCc3ccccc3)cc2=O)c1 [Example 19, 4-benzyloxy-2-oxo-2H-[1,2′]bipyridinyl-4′-carboxylic acid benzylamide] | 158 to 161 °C

Row | Compound | melting point
20 | O=C(NCc1ccccc1)c1ccnc(-n2ccc(O)cc2=O)c1 [Example 20, 4-hydroxy-2-oxo-2H-[1,2′]bipyridinyl-4′-carboxylic acid benzylamide] | 102 to 105 °C
21 | NC(=O)c1ccnc(N2CCN(Cc3ccc(F)cc3)C2=O)c1 [Example 22, 2-(3-(4-fluorobenzyl)-2-oxoimidazolidin-1-yl)isonicotinamide] | 206 to 208 °C
22 | Cc1nnc(CNC(=O)c2ccnc(N3CCN(Cc4ccc(F)cc4)C3=O)c2)o1 [Example 26.1, 2-(3-(4-Fluorobenzyl)-2-oxoimidazolidin-1-yl)-N-((5-methyl-1,3,4-oxadiazol-2-yl)methyl)isonicotinamide] | 136 to 138 °C
23 | O=C(NCc1ccc(F)cc1)c1ccnc(N2CCN(Cc3ccc(C(F)(F)F)cc3)C2=O)c1 [Example 26.2, N-(4-Fluorobenzyl)-2-(2-oxo-3-(4-(trifluoromethyl)benzyl)imidazolidin-1-yl)isonicotinamide] | 168 to 170 °C
24 | O=C(NCc1nnco1)c1ccnc(N2CCN(Cc3ccc(F)cc3)C2=O)c1 [Example 26.4, N-((1,3,4-Oxadiazol-2-yl)methyl)-2-(3-(4-fluorobenzyl)-2-oxoimidazolidin-1-yl)isonicotinamide] | 211 to 213 °C
25 | O=C(NCc1ccccc1)c1ccnc(N2CCN(Cc3ccc4nonc4c3)C2=O)c1 [Example 26.5, 2-(3-(Benzo[c][1,2,5]-oxadiazol-5-ylmethyl)-2-oxoimidazolidin-1-yl)-N-benzylisonicotinamide] | 165 to 167 °C
26 | CC(NC(=O)c1ccnc(N2CCN(Cc3ccc(F)cc3)C2=O)c1)c1ccccc1 (centres unmarked) [Example 26.6, 2-(3-(4-Fluorobenzyl)-2-oxoimidazolidin-1-yl)-N-(1-phenylethyl)-isonicotinamide] | 115 to 117 °C
27 | Cc1nc(CNC(=O)c2ccnc(N3CCN(Cc4ccc(F)cc4)C3=O)c2)no1 [Example 26.7, 2-(3-(4-Fluorobenzyl)-2-oxoimidazolidin-1-yl)-N-((5-methyl-1,2,4-oxadiazol-3-yl)methyl)-isonicotinamide] | 163 to 165 °C
28 | O=C(NCc1ccccn1)c1cc(N2CCN(Cc3ccc(F)cc3)C2=O)nc2ccccc12 [Example 26.8, 2-(3-(4-Fluorobenzyl)-2-oxoimidazolidin-1-yl)-N-(pyridin-2-ylmethyl)quinoline-4-carboxamide] | 161 to 163 °C
29 | O=C(NCc1cc(Br)no1)c1ccnc(N2CCN(Cc3ccc(F)cc3)C2=O)c1 [Example 26.9, N-((3-Bromoisoxazol-5-yl)methyl)-2-(3-(4-fluorobenzyl)-2-oxoimidazolidin-1-yl)isonicotinamide] | 178 to 180 °C
30 | O=C(NCc1cc(-c2ccccc2)on1)c1ccnc(N2CCN(Cc3ccc(F)cc3)C2=O)c1 [Example 26.10, 2-(3-(4-Fluorobenzyl)-2-oxoimidazolidin-1-yl)-N-((5-phenylisoxazol-3-yl)methyl)-isonicotinamide] | 199 to 201 °C
31 | O=C(NCc1cnc(Cl)s1)c1ccnc(N2CCN(Cc3ccc(F)cc3)C2=O)c1 [Example 26.11, N-((2-Chlorothiazol-5-yl)methyl)-2-(3-(4-fluorobenzyl)-2-oxoimidazolidin-1-yl)isonicotinamide] | 185 to 186 °C
32 | O=C(NCc1cncs1)c1ccnc(N2CCN(Cc3ccc(OC(F)(F)F)cc3)C2=O)c1 [Example 26.14, 2-(2-Oxo-3-(4-(trifluoromethoxy)benzyl)imidazolidin-1-yl)-N-(thiazol-5-ylmethyl)-isonicotinamide] | 189 to 191 °C
33 | O=C(NCc1cccnc1)c1ccnc(N2CCN(Cc3ccc(OC(F)(F)F)cc3)C2=O)c1 [Example 26.16, 2-(2-Oxo-3-(4-(trifluoromethoxy)-benzyl)imidazolidin-1-yl)-N-(pyridin-3-ylmethyl)-isonicotinamide] | 185 to 187 °C
34 | O=C(NCc1nccs1)c1ccnc(N2CCN(Cc3ccc(OC(F)(F)F)cc3)C2=O)c1 [Example 26.17, 2-(2-Oxo-3-(4-(trifluoromethoxy)benzyl)imidazolidin-1-yl)-N-(thiazol-2-ylmethyl)-isonicotinamide] | 97 to 99 °C
35 | O=C(NCc1cnc(Cl)s1)c1ccnc(N2CCN(Cc3ccc(C(F)(F)F)cc3)C2=O)c1 [Example 26.20, N-((2-Chlorothiazol-5-yl)methyl)-2-(2-oxo-3-(4-(trifluoromethyl)-benzyl)imidazolidin-1-yl)isonicotinamide] | 209 to 211 °C
36 | O=C(NCc1nccs1)c1ccnc(-n2cnn(Cc3ccc(F)cc3)c2=O)c1 [Example 26.21, 2-(1-(4-Fluorobenzyl)-5-oxo-1H-1,2,4-triazol-4(5H)-yl)-N-(thiazol-2-ylmethyl)-isonicotinamide] | 170 to 172 °C
37 | O=C(NCc1cncs1)c1ccnc(N2CCN(Cc3ccc(F)c(F)c3)C2=O)c1 [Example 26.24, 2-(3-(3,4-Difluorobenzyl)-2-oxoimidazolidin-1-yl)-N-(thiazol-5-ylmethyl)-isonicotinamide] | 111 to 113 °C
38 | O=C(NCc1nccs1)c1ccnc(N2CCN(Cc3ccc(F)c(F)c3)C2=O)c1 [Example 26.25, 2-(3-(3,4-Difluorobenzyl)-2-oxoimidazolidin-1-yl)-N-(thiazol-2-ylmethyl)-isonicotinamide] | 105 to 107 °C
